Test results taken from patent publication US20260297060A1, “COMPOUNDS FOR THE DEGRADATION OF MUTANT BRAF” (C4 THERAPEUTICS, INC., priority 2023, published 2026).
Like-named read-outs stand apart in the source and are kept apart here.

What was measured:
[1] = target: T1, BRAF V600E (Homo sapiens, UniProt P15056+Q96SW2, V600E); experiment: BRAF V600E HiBiT Degradation Assay; format: cell-based
T1 construct: knock-in of the HiBiT tag to the endogenous BRAF V600E locus; host or cells: A375.10 (A375 clonal line, CRISPR HiBiT knock-in at the endogenous BRAF V600E locus)
T1 sequence (P15056 whole entry V600E): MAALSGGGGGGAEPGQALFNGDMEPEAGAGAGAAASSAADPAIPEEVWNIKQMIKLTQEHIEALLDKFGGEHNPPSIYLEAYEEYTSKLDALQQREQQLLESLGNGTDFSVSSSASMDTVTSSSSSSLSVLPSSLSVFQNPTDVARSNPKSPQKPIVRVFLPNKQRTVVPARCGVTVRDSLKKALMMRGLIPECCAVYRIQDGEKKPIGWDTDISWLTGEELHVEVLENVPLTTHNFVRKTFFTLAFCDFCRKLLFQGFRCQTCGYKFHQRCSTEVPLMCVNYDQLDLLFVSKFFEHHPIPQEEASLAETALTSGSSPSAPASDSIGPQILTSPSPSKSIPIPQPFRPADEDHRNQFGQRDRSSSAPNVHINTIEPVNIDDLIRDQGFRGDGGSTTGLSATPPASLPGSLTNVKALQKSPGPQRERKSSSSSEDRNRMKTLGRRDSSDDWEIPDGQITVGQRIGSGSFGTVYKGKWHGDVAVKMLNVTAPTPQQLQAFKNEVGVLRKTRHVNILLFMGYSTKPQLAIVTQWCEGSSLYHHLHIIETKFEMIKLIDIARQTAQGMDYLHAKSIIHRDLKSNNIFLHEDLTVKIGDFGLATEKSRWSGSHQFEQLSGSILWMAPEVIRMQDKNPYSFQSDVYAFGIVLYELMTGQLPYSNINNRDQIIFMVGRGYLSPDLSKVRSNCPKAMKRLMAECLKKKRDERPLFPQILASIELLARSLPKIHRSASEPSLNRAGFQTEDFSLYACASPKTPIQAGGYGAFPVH
T1 sequence (Q96SW2 whole entry): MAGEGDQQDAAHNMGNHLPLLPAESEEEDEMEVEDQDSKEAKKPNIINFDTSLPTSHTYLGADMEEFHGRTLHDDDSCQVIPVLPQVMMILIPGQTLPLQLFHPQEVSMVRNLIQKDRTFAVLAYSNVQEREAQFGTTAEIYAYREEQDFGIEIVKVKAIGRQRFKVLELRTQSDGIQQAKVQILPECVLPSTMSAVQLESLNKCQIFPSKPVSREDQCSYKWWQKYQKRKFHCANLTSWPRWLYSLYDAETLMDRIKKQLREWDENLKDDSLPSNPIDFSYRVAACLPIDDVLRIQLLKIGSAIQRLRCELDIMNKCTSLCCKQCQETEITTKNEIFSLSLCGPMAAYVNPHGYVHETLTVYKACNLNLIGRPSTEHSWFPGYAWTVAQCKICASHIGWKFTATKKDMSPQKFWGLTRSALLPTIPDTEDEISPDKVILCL
T1 sequence (Q16531 whole entry partner): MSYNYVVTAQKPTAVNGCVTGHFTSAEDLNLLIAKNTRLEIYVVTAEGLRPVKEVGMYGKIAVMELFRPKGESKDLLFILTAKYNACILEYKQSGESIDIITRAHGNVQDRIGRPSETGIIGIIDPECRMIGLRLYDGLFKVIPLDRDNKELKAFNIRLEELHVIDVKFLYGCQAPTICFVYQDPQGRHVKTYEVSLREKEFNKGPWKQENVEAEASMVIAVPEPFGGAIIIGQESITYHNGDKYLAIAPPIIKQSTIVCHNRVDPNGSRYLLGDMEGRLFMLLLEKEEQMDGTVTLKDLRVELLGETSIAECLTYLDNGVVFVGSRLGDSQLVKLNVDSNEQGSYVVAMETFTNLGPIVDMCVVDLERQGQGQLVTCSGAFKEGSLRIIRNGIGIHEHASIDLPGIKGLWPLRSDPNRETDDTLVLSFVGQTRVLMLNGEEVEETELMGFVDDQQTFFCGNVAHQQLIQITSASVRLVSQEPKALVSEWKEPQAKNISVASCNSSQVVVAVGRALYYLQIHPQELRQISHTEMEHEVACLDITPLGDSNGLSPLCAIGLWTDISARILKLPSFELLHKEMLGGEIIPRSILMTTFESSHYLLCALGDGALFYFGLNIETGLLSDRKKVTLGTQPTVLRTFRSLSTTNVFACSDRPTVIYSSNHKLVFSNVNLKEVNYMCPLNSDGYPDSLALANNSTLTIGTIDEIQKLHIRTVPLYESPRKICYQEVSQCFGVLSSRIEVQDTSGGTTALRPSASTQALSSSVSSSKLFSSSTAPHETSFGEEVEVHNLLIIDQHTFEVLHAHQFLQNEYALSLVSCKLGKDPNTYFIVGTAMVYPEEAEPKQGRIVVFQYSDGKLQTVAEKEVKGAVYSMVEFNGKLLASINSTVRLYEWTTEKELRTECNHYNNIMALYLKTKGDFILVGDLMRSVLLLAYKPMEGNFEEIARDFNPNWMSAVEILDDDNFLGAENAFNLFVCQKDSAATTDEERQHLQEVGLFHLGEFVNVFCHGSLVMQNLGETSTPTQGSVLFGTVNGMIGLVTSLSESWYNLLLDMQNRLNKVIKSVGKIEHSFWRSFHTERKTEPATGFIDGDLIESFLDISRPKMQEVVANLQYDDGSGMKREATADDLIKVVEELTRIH
Description: Compounds of this invention were tested for degradation of mutant BRAF V600E using the HiBiT assay, a luminescence-based assay for quantification of cellular protein levels using the Nano-Glo® HiBiT Lytic Detection System (Catalog No. N3050, Promega, Madison, WI USA). This assay utilizes the HiBiT tag on a protein of interest, which creates a luminescent signal in the presence of a complementing peptide and its substrate, the quantification of which is proportional to the amount of HiBiT-tagged protein in the cell.
The cell line A375, which is homozygous for the BRAF V600E mutation, was purchased from ATCC (Catalog No. CRL-1619, Manassas, VA, USA). A375 cells were engineered to express HiBiT tagged BRAF V600E by CRISPR knock-in of the HiBiT tag to the endogenous BRAF V600E locus, followed by selection of a clonal population containing the appropriate knock-in (referred to here as cell line A375.10). A375.10 cells were maintained at 37° C. in an atmosphere of 5% CO2 in Dulbecco's modified Eagle Medium (DMEM) with high glucose (Catalog No. 11965092), supplemented with 10% fetal bovine serum (FBS; Catalog No. 10437036), and 10 mM HEPES (Catalog No. 15630130), all obtained from Thermofisher Scientific (Waltham, MA, USA). Cell culture flasks and 384-well microplates were acquired from VWR (Radnor, PA, USA).
Test compounds were prepared by dissolving neat compounds in DMSO (Catalog No. D8418, Sigma-Aldrich, Inc., St. Louis, MO, USA) to generate 10 mM stock solutions, which were serially diluted (half log) in DMSO to generate an 11-point dose series (1000× final treatment concentration) in a 384-Well Low Dead Volume Microplate (Catalog No. LP-0200, Labcyte, San Jose, CA, USA). Using the Echo 550 Acoustic Liquid Handler (Labcyte), 30 nL of serially diluted compound solutions were dispensed in duplicate to 384-well TC-treated microplates (Catalog No. 3571, Corning, Glendale, CA, USA) and 30 nL of DMSO was dispensed to control wells. A375.10 cells resuspended in growth media without phenol red (Catalog No. 21063-029, Thermofisher Scientific) were then added to 384-well plates containing the 11-point dose series of compounds in duplicate (maximum 10 μM concentration for final treatment) at a density of 12,000 cells/well in 30 μl. Plates were then spun briefly, and cells were incubated with compound at 37° C. for 2 hours, 6 hours, or 24 hours.
Following the appropriate treatment time, Nano-Glo® HiBiT Lytic Assay reagents were added to the cells per the manufacturer's instructions by adding 30 μl of reagent per well, and the luminescence signal was acquired by plate reader. Cells treated with DMSO only (no test compound treatment) were used as the negative control (N). Media only (no cells added) with Nano-Glo reagent addition was used as the background or positive control (P). The percent response of compound treated samples were calculated by subtracting out the background signal (P) and normalizing to the DMSO control (N) as follows.
% Response=100×(Treated Signal−Average (P))/(Average (N)−Average (P)).
Data were analyzed with a 4-parameter logistic fit to generate sigmoidal dose-response curves. The DC50 is the concentration of compound at which 50% of the cellular BRAF V600E has been degraded. The Emax, or maximum effect of each compound, represents the amount of residual protein remaining in the cell following compound treatment. The IP, or inflection point of the dose-response curve, is the concentration of compound at which 50% of the observed degradation response is achieved.
The experiment was conducted at least once for each compound. If the experiment was conducted multiple times, the data shown in the table is the average of the two or more experiments.

[2] = system: A375-NRAS^Q61K cells; experiment: CTGlo Cell Viability Assay, A375-NRAS^Q61K (A375.11) cells, 96 hours; format: cell-based, human; details: A375.11 (A375-NRAS^Q61K) cells; for CTGlo A375.11 96 hours Emax: lowest % viability achieved
Description: Compounds of this invention were tested for their effect on the viability of A375-NRAS^Q61K cells by quantification of ATP using the CellTiter-Glo® 2.0 Cell Viability Assay (Catalog No. G9243, Promega, Madison, WI, USA). This assay produces a luminescent signal in the presence of ATP, which is indicative of metabolically active cells, making the luminescence readout proportional to the number of viable cells.
A375-NRAS^Q61K cells (harboring BRAF homozygous V600E mutation and NRAS homozygous Q61K mutation) were purchased from ATCC (Catalog No. CRL-1619IG-2, Manassas, VA, USA). A375-NRAS^Q61K cells (also referred to here as A375.11) were maintained at 37° C. in an atmosphere of 5% CO2 in Dulbecco's modified Eagle Medium (DMEM) with high glucose (Catalog No. 11965092), supplemented with 10% fetal bovine serum (FBS; Catalog No. 10437036), and 10 mM HEPES (Catalog No. 15630130), all obtained from Thermofisher Scientific (Waltham, MA, USA). Cell culture flasks and 384-well microplates were acquired from VWR (Radnor, PA, USA).
Test compounds were prepared by dissolving neat compounds in DMSO (Catalog No. D8418, Sigma-Aldrich, Inc., St. Louis, MO, USA) to generate 10 mM stock solutions, which were serially diluted (half log) in DMSO to generate an 11-point dose series (1000× final treatment concentration) in a 384-Well Low Dead Volume Microplate (Catalog No. LP-0200, Labcyte, San Jose, CA, USA). Using the Echo 550 Acoustic Liquid Handler (Labcyte), 50 nL of serially diluted compound solutions were dispensed in duplicate to 384-well TC-treated microplates (Catalog No. 3571, Corning, Glendale, CA, USA) and 50 nL of DMSO was dispensed to control wells. A375-NRAS^Q61K cells were resuspended in growth media and added to 384-well plates containing a […] of compounds in duplicate (maximum 10 μM concentration for final treatment) at a density of 250 cells/well in 50 μl. Cells were also plated to a 384-well plate with no compound treatment, to which CellTiter-Glo® reagent was added and luminescence was read right after plating to act as a baseline signal at time of plating (To). Plates treated with compound were then spun briefly, and cells were incubated with compound at 37° C. for 96 hours.
After 96 hours compound treatment, CellTiter-Glo® reagent was added to the cells at 25 μl per well and luminescence was read out on the PHERAstar plate reader (BMG Labtech, Ortenberg, Germany). Cells treated with DMSO only (no test compound treatment) were used as the negative control (N). DMSO treated cells with no CellTiter-Glo® reagent added were used as the background or positive control (P). Viability was determined by subtracting out the average background signal (P) and normalized to the average untreated signal (N) set at 100%.
Data were analyzed with a 4-parameter logistic fit to generate sigmoidal dose-response curves. The half-maximal inhibition of cell growth (GI50) is the concentration at which the fitted curve crosses 50%. The Emax, or maximum effect of each compound, represents the lowest % viability achieved following compound treatment.

[3] = A375.10 cells, BRAF V600E, 2 hours, inflection point, read-out: HiBiT-Degradation A375.10 BRAF 2 hours IP
[4] = A375.10 cells, BRAF V600E, 2 hours, read-out: HiBiT-Degradation A375.10 BRAF 2 hours DC50
[5] = A375.10 cells, BRAF V600E, 2 hours, residual protein remaining
[6] = A375.10 cells, BRAF V600E, 6 hours, inflection point, read-out: HiBiT-Degradation A375.10 BRAF 6 hours IP
[7] = A375.10 cells, BRAF V600E, 6 hours, read-out: HiBiT-Degradation A375.10 BRAF 6 hours DC50
[8] = A375.10 cells, HiBiT, BRAF V600E, 24 hours, read-out: HiBiT-Degradation A375.10 BRAF 24 hours DC50
[9] = A375.10 cells, HiBiT, BRAF V600E, 24 hours, read-out: HiBiT-Degradation A375.10 BRAF 24 hours IP

Row | DC50 [1, 3] [nM] | DC50 [1, 4] [nM] | HiBiT-Degradation A375.10 BRAF 2 hours Emax [1, 5] | DC50 [1, 6] [nM] | DC50 [1, 7] [nM] | Emax ([1]; A375.10 cells, BRAF V600E, 6 hours, residual protein remaining, read-out: HiBiT-Degradation A375.10 BRAF 6 hours Emax) [%] | DC50 [1, 8] [nM] | Emax ([1]; A375.10 cells, HiBiT, BRAF V600E, 24 hours, read-out: HiBiT-Degradation A375.10 BRAF 24 hours Emax) [%] | DC50 [1, 9] [nM] | GI50 [2] [µM] | HiBiT-Degradation A375.10 BRAF 2 hours Emax [1] | HiBiT-Degradation A375.10 BRAF 6 hours Emax ([1]; A375.10 cells, BRAF V600E, 6 hours, residual protein remaining) | HiBiT-Degradation A375.10 BRAF 24 hours Emax ([1]; A375.10 cells, HiBiT, BRAF V600E, 24 hours) | SMILES | CTGlo A375.11 96 hours Emax [2]
1 | < 1000 | < 1000 | *** (<=50%) | < 1000 | < 1000 | < 50 | < 1000 | < 50 | < 1000 | 1 to 10 | – | – | – | CCN(C)S(=O)(=O)Nc1ccc(F)c(Nc2ccc3ncn([C@H]4COC5(CCN(C6CCC(c7ccc(NC8CCC(=O)NC8=O)cc7F)CC6)CC5)C4)c(=O)c3c2)c1C#N (single isomer, unassigned) [Compound 57] | ** (<90% and >50%)
2 | < 1000 | < 1000 | – | – | – | – | – | – | – | 1 to 10 | ** (<90% and >50%) | – | – | CCN(C)S(=O)(=O)Nc1ccc(F)c(Oc2ccc3ncc([C@H]4COC5(CCN(C6CCC(c7ccc(NC8CCC(=O)NC8=O)cc7F)CC6)CC5)C4)nc3c2)c1C#N (single isomer, unassigned) [Compound 59] | ** (<90% and >50%)
3 | < 1000 | 1000 to 10000 | – | – | – | – | – | – | – | > 10 | ** (<90% and >50%) | – | – | CCN(C)S(=O)(=O)Nc1ccc(F)c(Oc2ccc3ncc([C@@H]4COC5(CCN(C6CCC(c7ccc(NC8CCC(=O)NC8=O)cc7F)CC6)CC5)C4)nc3c2)c1C#N (single isomer, unassigned) [Compound 61] | ** (<90% and >50%)
4 | < 1000 | < 1000 | *** (<=50%) | < 1000 | < 1000 | – | < 1000 | – | < 1000 | < 1 | – | *** (<=50%) | *** (<=50%) | CCN(C)S(=O)(=O)Nc1ccc(F)c(Oc2ccc3ncn([C@H]4COC5(CCN(C6CC(c7ccc(NC8CCC(=O)NC8=O)cc7F)C6)CC5)C4)c(=O)c3c2)c1C#N (single isomer, unassigned) [Compound 63] | *** (<=50%)
